Where a name gives a salt, the structure may show the parent alone. One block for each molecule: values may come before it.
How the values were obtained:
[1] = In vivo pharmacokinetics in SD rats; design: species or system SD (Sprague Dwaley) rats
Method: (§1) Test sample: the crystal form I of dihydrochloride salt of Compound A prepared from Example 1.
Experimental Animals: SD (Sprague Dwaley) rats, quantity 12.
The SD rats were divided into two groups, namely Intravenous Injection group and Intragastric Administration group, and there were 6 rats in each group in which one half were female and the other were male. The dose administrated was always 10 mg/kg (in terms of Compound A). The volume administered by the intravenous injection route was 5 mL/kg, and the volume administered by the intragastric administration route was 10 mL/kg. The time points for sequential blood sampling were 0 minutes before administration (0 min), and 5 min, 15 min, 30 min, 1 h, 2 h, 4 h, 6 h, 8 h, 12 h and 24 h after administration. About 150 μL of blood was collected into a sodium heparin anticoagulation tube from the caudal vein or Inner canthus vein after administration. The whole blood was placed in a high-speed refrigerated centrifuge (8000 rpm, 0-4° C.) and centrifuged for 6 min. The supernatant of the blood plasma was separated and stored in a refrigerator for measurement. The centrifugation of all blood samples was completed within 30 min after blood collection. The concentration of Compound A in the blood plasma of SD rats was determined by LC-MS/MS method.
Analysis and processing of Data: The plasma concentration—time curve was plotted, and the pharmacokinetic parameters were calculated by using the non-compartment model in Phrsight Phoenix 6.1.

[2] = Investigation on the water solubility; assay type: physicochemical
Description: Investigation on the Water Solubility of Crystal Form I of Dihydrochloride Salt of Compound A

[3] = biological target: DPP-IV (Homo sapiens, UniProt P27487); conditions: background; described in CN201010291056.9; cited from earlier work
DPP-IV, sequence (P27487 whole entry, species assumed): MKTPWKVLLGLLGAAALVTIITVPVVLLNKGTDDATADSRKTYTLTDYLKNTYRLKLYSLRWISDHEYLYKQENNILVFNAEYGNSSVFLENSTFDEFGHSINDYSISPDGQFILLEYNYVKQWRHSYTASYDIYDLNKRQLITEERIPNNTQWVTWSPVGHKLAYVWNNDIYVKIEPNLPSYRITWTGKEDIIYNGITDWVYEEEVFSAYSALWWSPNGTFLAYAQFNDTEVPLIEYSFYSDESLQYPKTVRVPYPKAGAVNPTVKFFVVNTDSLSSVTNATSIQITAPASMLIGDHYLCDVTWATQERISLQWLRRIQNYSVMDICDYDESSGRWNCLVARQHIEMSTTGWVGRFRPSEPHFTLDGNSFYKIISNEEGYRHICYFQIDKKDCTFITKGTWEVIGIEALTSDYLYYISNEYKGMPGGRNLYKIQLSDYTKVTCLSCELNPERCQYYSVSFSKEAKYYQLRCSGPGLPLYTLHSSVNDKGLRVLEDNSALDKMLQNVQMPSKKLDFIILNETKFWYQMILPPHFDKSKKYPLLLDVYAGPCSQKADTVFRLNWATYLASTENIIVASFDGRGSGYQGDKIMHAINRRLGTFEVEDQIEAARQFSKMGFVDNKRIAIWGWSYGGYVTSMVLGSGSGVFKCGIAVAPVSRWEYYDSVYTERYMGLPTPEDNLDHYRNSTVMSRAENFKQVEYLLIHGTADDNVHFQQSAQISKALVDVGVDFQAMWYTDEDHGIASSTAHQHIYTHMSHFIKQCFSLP

[4] = Influence factor stability test (high temperature, high humidity, light irradiation); assay type: physicochemical
Method: The crystal form I of dihydrochloride salt of Compound A prepared from Example 1.
The Test Conditions for Investigating the Influencing Factors:
Each of the test samples was placed at a high temperature of 60° C. (packed with an plastic bag for packing drugs as the inner layer and an aluminium foil as the outer layer), a high humidity of RH75%±5% (uniformly spread on a dry and clean watch glass), and a light irradiation of 4500 Lx±500 Lx (uniformly spread on a dry and clean watch glass). Sampling was performed on Day 5 and Day 10 respectively, and Relevant Substance and the content of Compound A were measured and compared with those of the sample on Day 0.
(§2) The content was measured by using an External Standard method in accordance with the High Performance Liquid Chromatography in Chinese Pharmacopoeia, Appendix V D, Edition 2010.
(§3) Measurement of Relevant Substance
(§4) The Relevant Substance was measured by using an Area Normalization method in accordance with the High Performance Liquid Chromatography in Chinese Pharmacopoeia, Appendix V D, Edition 2010.

[5] = Long-term stability test; assay type: physicochemical; conditions: for Content of Compound A (%) / Content of Relevant Substance (%) / Properties: 25° C.±2° C., RH 60%±10%
Method: The Test Conditions for Investigating the Long-Term Stability:
Each of the test samples was placed at a temperature of 25° C.±2° C. and a humidity of RH 60%±10%. Sampling was performed at the end of Months 3, 6, 9, 12 and 18 respectively, and Relevant Substance and the content of Compound A were measured and compared with those of the sample on Day 0. During the investigation, the sample was packed with a plastic bag for packing drugs as the inner layer and an aluminium foil as the outer layer.
as §2, §3, §4

[6] = test system: blood glucose; assay: Oral Glucose Tolerance Test (OGTT) in mice; assay type: in vivo, Mice C57BL/6; conditions: for inhibition ratio for the blood glucose AUC: glucose 3 g/kg
Method: as §1
Experimental animals: Mice C57BL/6, quantity 40.
On the day before the test, the food for mice was removed at 5 p.m., and the mice were fasted overnight. On the second day, the fasting blood glucose of each mouse was checked at 9 a.m. and recorded as −30 min blood glucose. The body weight was weighed and recorded. After balancing the blood glucose level and body weight, the mice were randomly divided into four groups, namely Background Control group, Vehicle Control group, Dosing group 1 and Dosing group 2. To the later three groups, a vehicle (0.9% sodium chloride injection solution), 1 mg/kg test sample and 3 mg/kg test sample was administered respectively, and the volume administered was 10 mL/kg. The blood glucose of each mouse was measured and recorded as 0 min blood glucose 30 minutes after the intragastric administration. Afterwards glucose was further administered via intragastric administration at a dose of 3 g/kg to the Vehicle Control group, Dosing group 1 and Dosing group 2, and 0.9% sodium chloride injection solution was administered via intragastric administration to the Background Control group at an intragastric administration volume of 10 mL/kg. Then, the blood glucose levels were measured at 20, 40, 60 and 120 minutes after the administration of glucose or sodium chloride solution.
Analysis and Processing of the Data:
The area under the time-blood glucose curve of the OGTT (Oral Glucose Tolerance Test) (AUC) was calculated. A net variable AUC (ΔAUC) was obtained by subtracting the AUC of Background Control group from that of Vehicle Control group, Dosing groups 1 and 2. The inhibition ratio (%)=100×(ΔAUCVehicle Control group-ΔAUC)/ΔAUCVehicle Control group, wherein ΔAUC is the net variable AUC of each Dosing group, and ΔAUCVehicle Control group is the net variable AUC of Vehicle Control group. The data of Dosing groups were compared with that of Vehicle Control group by using t-test value analysis, and the difference was considered significant at p<0.05.

[7] = intravenous injection, 10 mg/kg (in terms of Compound A)

- bioavailability ([1]; both sexes, Sprague-Dawley, rat, plasma, oral, intragastric vs intravenous, 10 mg/kg (in terms of Compound A), read-out: bioavailability (F %)): 96.6%
Compound: Cc1cc(N2CCC[C@@H](N)C2)c2c(n1)n(C)c(=O)n2Cc1ccccc1C#N

- Water solubility [2]: <0.1 mg/mL
- Water solubility (in words) [2]: hardly dissolved or insoluble in water
Compound: Cc1cc(N2CCC[C@@H](N)C2)c2c(n1)n(C)c(=O)n2Cc1ccccc1C#N [Compound A, (R)-2-[[7-(3-aminopiperidin-1-yl)-3,5-dimethyl-2-oxo-2,3-dihydro-1H-imidazo[4,5-b]pyridin-1-yl]methyl]benzonitrile]
- inhibitory effect for DPP-IV (in words) [3]: strong inhibitory effect
- selectivity for DPP-IV (in words) [3]: very high selectivity

- Water solubility [2]: >1000 mg/mL
- Water solubility (in words) [2]: dissolved very easily in water
- Content of Compound A (%) ([4]; 60° C., Day 5): 98.80%
- Content of Relevant Substance (%) ([4]; 60° C., Day 5): 0.156%
- Properties ([4]; 60° C., Day 5): white crystalline
- Content of Compound A (%) ([4]; 60° C., Day 10): 99.42%
- Content of Relevant Substance (%) ([4]; 60° C., Day 10): 0.142%
- Properties ([4]; 60° C., Day 10): white crystalline
- Content of Compound A (%) ([4]; 4500Lx ± 500Lx, Day 5): 98.09%
- Content of Relevant Substance (%) ([4]; 4500Lx ± 500Lx, Day 5): 0.194%
- Properties ([4]; 4500Lx ± 500Lx, Day 5): white crystalline
- Content of Compound A (%) ([4]; 4500Lx ± 500Lx, Day 10): 99.17%
- Content of Relevant Substance (%) ([4]; 4500Lx ± 500Lx, Day 10): 0.159%
- Properties ([4]; 4500Lx ± 500Lx, Day 10): white crystalline
- Content of Compound A (%) ([4]; Day 0): 99.16%
- Content of Relevant Substance (%) ([4]; Day 0): 0.151%
- Properties ([4]; Day 0): white crystalline
- Content of Compound A (%) ([4]; RH 75% ± 5%, Day 5): 99.30%
- Content of Relevant Substance (%) ([4]; RH 75% ± 5%, Day 5): 0.200%
- Properties ([4]; RH 75% ± 5%, Day 5): white crystalline
- Content of Compound A (%) ([4]; RH 75% ± 5%, Day 10): 99.55%
- Content of Relevant Substance (%) ([4]; RH 75% ± 5%, Day 10): 0.171%
- Properties ([4]; RH 75% ± 5%, Day 10): white crystalline
- Relevant Substance and the content of Compound A (change, in words) ([4]; high temperature, high humidity and light irradiation): substantially unchanged
- Content of Compound A (%) ([5]; Month 0): 99.53%
- Content of Relevant Substance (%) ([5]; Month 0): 0.211%
- Properties ([5]; Month 0): white crystalline
- Content of Compound A (%) ([5]; Month 3): 99.32%
- Content of Relevant Substance (%) ([5]; Month 3): 0.251%
- Properties ([5]; Month 3): white crystalline
- Content of Compound A (%) ([5]; Month 6): 99.19%
- Content of Relevant Substance (%) ([5]; Month 6): 0.246%
- Properties ([5]; Month 6): white crystalline
- Content of Compound A (%) ([5]; Month 9): 98.99%
- Content of Relevant Substance (%) ([5]; Month 9): 0.248%
- Properties ([5]; Month 9): white crystalline
- Content of Compound A (%) ([5]; Month 12): 99.17%
- Content of Relevant Substance (%) ([5]; Month 12): 0.221%
- Properties ([5]; Month 12): white crystalline
- Content of Compound A (%) ([5]; Month 18): 99.37%
- Content of Relevant Substance (%) ([5]; Month 18): 0.221%
- Properties ([5]; Month 18): white crystalline
- Relevant Substance and the content of Compound A (change, in words) ([5]; long-term stability investigating test): substantially unchanged
- in vivo bioavailability (in words) [1]: high
- apparent volume of distribution (Vd) [1, 7]: 6.17 L/kg
- plasma clearance (CL) [1, 7]: 40 mL/min/kg
Compound: Cc1cc(N2CCC[C@@H](N)C2)c2c(n1)n(C)c(=O)n2Cc1ccccc1C#N [crystal form I of dihydrochloride salt of Compound A]
- effect for reducing blood glucose (in words) ([6]; mice C57BL/6): significant effect for reducing blood glucose
- inhibition ratio for the blood glucose AUC ([6]; mice C57BL/6, 1 mg/kg intragastric): 57%
- inhibition ratio for the blood glucose AUC ([6]; mice C57BL/6, 3 mg/kg intragastric): 65%

Reference: patent publication US8927572B2, “Crystal form I of salt of a dipeptidyl peptidase-IV inhibitor and preparation method and use thereof” (Xuanzhu Pharma Co., Ltd., priority 2011, dated 2015)
